Biological target: Wild-type cruzipain (Trypanosoma cruzi, UniProt P25779)
Experiment: Trypanosoma cruzi cruzipain peptidase activity assay (Ki)
Format: biochemical
Details: read-out: Ki, inhibitors of cruzain and cruzipains
Procedure: Unless otherwise stated, all general chemicals and biochemicals were purchased from either the Sigma Chemical Company, Poole, Dorset, U.K or from Fisher Scientific UK, Loughborough, Leicestershire, U.K. Absorbance assays were carried out in flat-bottomed 96-well plates (Spectra; Greiner Bio-One Ltd., Stonehouse, Gloucestershire, U.K.) using a SpectraMax PLUS384 plate reader (Molecular Devices, Crawley, U.K.). Fluorescence high throughput assays were carried out in either 384-well microtitre plates (Corning Costar 3705 plates, Fisher Scientific) or 96-well ‘U’ bottomed Microfluor W1 microtitre plates (Thermo Labsystems, Ashford, Middlesex, U.K.). Fluorescence assays were monitored using a SpectraMax Gemini fluorescence plate reader (Molecular Devices). For substrates employing either a 7-amino-4-methylcoumarin (AMC) or a 7-amino-4-trifluoromethylcoumarin (AFC) fluorophore, assays were monitored at an excitation wavelength of 365 nm and an emission wavelength of 450 nm and the fluorescence plate reader calibrated with AMC. For substrates employing a 3-amino-benzoyl (Abz) fluorophore, assays were monitored at an excitation wavelength of 310 nm and an emission wavelength of 445 nm; the fluorescence plate reader calibrated with 3-amino-benzamide (Fluka). Unless otherwise indicated, all the peptidase substrates were purchased from Bachem UK, St Helens, Merseyside, UK. Substrates utilizing fluorescence resonance energy transfer methodology (i.e. FRET-based substrates) were synthesized at Incenta Limited using published methods (Atherton & Sheppard, Solid Phase Peptide Synthesis, IRL Press, Oxford, U.K, 1989) and employed Abz (2-aminobenzoyl) as the fluorescence donor and 3-nitro-tyrosine [Tyr(NO2)] as the fluorescence quencher (Meldal, M. and Breddam, K., Anal. Biochem, 195, 141-147, 1991). Hydroxyethylpiperazine ethanesulfonate (HEPES), tris-hydroxylmethyl aminomethane (tris) base, bis-tris-propane and all the biological detergents (e.g. CHAPS, zwittergents, etc.) were purchased from CN Biosciences UK, Beeston, Nottinghamshire, U.K. Glycerol was purchased from Amersham Pharmacia Biotech, Little Chalfont, Buckinghamshire, U.K. Stock solutions of substrate or inhibitor were made up to 10 mM in 100% dimethylsulfoxide (DMSO) (Rathburns, Glasgow, U.K.) and diluted as appropriately required. In all cases the DMSO concentration in the assays was maintained at less than 1% (vol./vol.).
Assay protocols were based on literature precedent (Table 4; Barrett, A. J., Rawlings, N. D. and Woessner, J. F., 1998, Handbook of Proteolytic Enzymes, Academic Press, London and references therein) and modified as required to suit local assay protocols. Enzyme was added as required to initiate the reaction and the activity, as judged by the change in fluorescence upon conversion of substrate to product, was monitored over time. All assays were carried out at 25±1° C.
Wild-type cruzipain, derived from Trypanosoma cruzi Dm28 epimastigotes, was obtained from Dr. Julio Scharfstein (Instituto de Biofisica Carlos Chagas Filho, Universidade Federal do Rio de Janeiro, Rio de Janeiro, Brazil). Activity assays were carried out in 100 mM sodium phosphate, pH 6.75 containing 1 mM EDTA and 10 mM L-cysteine using 2.5 nM enzyme. […] The rate of conversion of substrate to product was derived from the slope of the increase in fluorescence monitored continuously over time.
The apparent inhibition constant (Ki) for each compound was determined on the basis that inhibition was reversible and occurred by a pure-competitive mechanism. The Ki values were calculated, from the dependence of enzyme activity as a function of inhibitor concentration, by direct regression analysis (Prism v 3.02) using Equation 2 (Cornish-Bowden, A., 1995.). [formula]

Wild-type cruzipain, sequence (P25779 whole entry): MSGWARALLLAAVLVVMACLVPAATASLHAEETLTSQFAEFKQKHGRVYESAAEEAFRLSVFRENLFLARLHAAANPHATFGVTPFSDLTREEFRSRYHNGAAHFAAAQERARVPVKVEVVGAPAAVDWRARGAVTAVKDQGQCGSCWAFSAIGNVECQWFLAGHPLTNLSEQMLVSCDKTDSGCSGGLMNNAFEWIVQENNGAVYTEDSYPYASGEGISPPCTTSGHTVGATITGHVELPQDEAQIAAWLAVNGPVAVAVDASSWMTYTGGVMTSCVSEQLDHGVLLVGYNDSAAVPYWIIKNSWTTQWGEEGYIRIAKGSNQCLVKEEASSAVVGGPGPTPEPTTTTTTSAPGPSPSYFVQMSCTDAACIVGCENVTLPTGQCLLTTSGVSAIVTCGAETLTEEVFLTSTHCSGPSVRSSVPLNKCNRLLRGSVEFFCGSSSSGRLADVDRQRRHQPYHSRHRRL

Question: For `COC(=O)NCC(=O)N1CC(=O)[C@@H]2[C@H]1CCN2C(=O)[C@H](CC(C)C)NC(=O)c1ccc(N(C)C)cc1` [Example 183, (3aS,6aR)-(2-{4-[(2S)-2-(4-Dimethylamino-benzoylamino)-4-methyl-pentanoyl]-3-oxo-hexahydro-pyrrolo[3,2-b]pyrrole-1-yl}-2-oxo-ethyl)-carbamic acid methyl ester], which Ki is on record?
Answer: < 5 µM

Question: With `CCC[C@H](NC(=O)c1ccc(N(C)C)cc1)C(=O)N1CC[C@@H]2[C@H]1C(=O)CN2C(=O)c1ccccc1` [Example 196, (3aR,6aS)-N-[(1S)-1-(4-Benzoyl-6-oxo-hexahydro-pyrrolo[3,2-b]pyrrole-1-carbonyl)-butyl]-4-dimethylamino-benzamide] as the compound, how does the Ki read?
Answer: < 5 µM

Question: `CC(=O)N[C@@H](C)C(=O)N1CC(=O)[C@@H]2[C@H]1CCN2C(=O)[C@H](CC(C)C)NC(=O)c1ccc(N(C)C)cc1` [Example 197, (3aR,6aS)-N-{(1S)-1-[4-((2S)-2-Acetylamino-propionyl)-6-oxo-hexahydro-pyrrolo[3,2-b]pyrrole-1-carbonyl]-3-methyl-butyl}-4-dimethylamino-benzamide] was tested. Which Ki did it give?
Answer: < 5 µM

Question: `CC(=O)NCC(=O)N1CC(=O)[C@@H]2[C@H]1CCN2C(=O)[C@H](CC(C)C)NC(=O)c1ccc(N(C)C)cc1` [Example 199, (3aR,6aS)-N-{(1S)-1-[4-(2-Acetylamino-acetyl)-6-oxo-hexahydro-pyrrolo[3,2-b]pyrrole-1-carbonyl]-3-methyl-butyl}-4-dimethylamino-benzamide] was tested. Which Ki did it give?
Answer: < 5 µM

Question: For `CNCC(=O)N1CC(=O)[C@@H]2[C@H]1CCN2C(=O)[C@H](CC(C)C)NC(=O)c1ccc(N(C)C)cc1` [Example 200, (3aR,6aS)-4-Dimethylamino-N-{(1S)-3-methyl-1-[4-(2-methylamino-acetyl)-6-oxo-hexahydro-pyrrolo[3,2-b]pyrrole-1-carbonyl]-butyl}-benzamide], which Ki is on record?
Answer: < 5 µM

Question: How did the Ki turn out when `CC[C@H](N)C(=O)N1CC(=O)[C@@H]2[C@H]1CCN2C(=O)[C@H](CC(C)C)NC(=O)c1ccc(N(C)C)cc1` [Example 203, (3aR,6aS)-N-{(1S)-1-[4-((2S)-2-Amino-butyryl)-6-oxo-hexahydro-pyrrolo[3,2-b]pyrrole-1-carbonyl]-3-methyl-butyl}-4-dimethylamino-benzamide] was run?
Answer: < 5 µM

Question: Which Ki does the source give for `CC(C)C[C@H](NC(=O)c1ccc(N(C)C)cc1)C(=O)N1CC[C@@H]2[C@H]1C(=O)CN2C(=O)[C@@H](N)C(C)C` [Example 205, (3aR,6aS)-N-{(1S)-1-[4-((2S)-2-Amino-3-methyl-butyryl)-6-oxo-hexahydro-pyrrolo[3,2-b]pyrrole-1-carbonyl]-3-methyl-butyl}-4-dimethylamino-benzamide] here?
Answer: < 5 µM

Question: `CC(C)C[C@H](NC(=O)c1ccc(N(C)C)cc1)C(=O)N1CC[C@@H]2[C@H]1C(=O)CN2C(=O)[C@@H](N)CO` [Example 206, (3aR,6aS)-N-{(1S)-1-[((2S)-2-Amino-3-hydroxy-propionyl)-6-oxo-hexahydro-pyrrolo[3,2-b]pyrrole-1-carbonyl]-3-methyl-butyl}-4-dimethylamino-benzamide] was tested. Which Ki did it give?
Answer: < 5 µM

Question: How did the Ki turn out when `CCC[C@H](N)C(=O)N1CC(=O)[C@@H]2[C@H]1CCN2C(=O)[C@H](CC(C)C)NC(=O)c1ccc(N(C)C)cc1` [Example 210, (3aR,6aS)-N-{(1S)-1-[4-((2S)-2-Amino-pentanoyl)-6-oxo-hexahydro-pyrrolo[3,2-b]pyrrole-1-carbonyl]-3-methyl-butyl}-4-dimethylamino-benzamide] was run?
Answer: < 5 µM

Question: With `CC(C)C[C@H](NC(=O)c1ccc(N(C)C)cc1)C(=O)N1CC[C@@H]2[C@H]1C(=O)CN2C(=O)[C@@H]1CCCCN1` [Example 217, (3aR,6aS)-4-Dimethylamino-N-{(1S)-3-methyl-1-[6-oxo-4-((2S)-piperidine-2-carbonyl)-hexahydro-pyrrolo[3,2-b]pyrrole-1-carbonyl]-butyl}-benzamide] as the compound, how does the Ki read?
Answer: < 5 µM

Question: `CC(C)C[C@H](NC(=O)c1ccc(N(C)C)cc1)C(=O)N1CC[C@@H]2[C@H]1C(=O)CN2C(=O)[C@@H]1C[C@@H](O)CN1` [Example 218, (3aR,6aS)-4-Dimethylamino-N-{(1S)-1-[4-((2S,4R)-4-hydroxy-pyrrolidine-2-carbonyl)-6-oxo-hexahydro-pyrrolo[3,2-b]pyrrole-1-carbonyl]-3-methyl-butyl}-benzamide] was tested. Which Ki did it give?
Answer: < 5 µM

Question: With `CC(=O)N(C)[C@@H](CC(C)C)C(=O)N1CC(=O)[C@@H]2[C@H]1CCN2C(=O)[C@H](CC(C)C)NC(=O)c1ccc(N(C)C)cc1` [Example 221, (3aR,6aS)-N-((1S)-1-{4-[(2S)-2-(Acetyl-methyl-amino)-4-methyl-pentanoyl]-6-oxo-hexahydro-pyrrolo[3,2-b]pyrrole-1-carbonyl}-3-methyl-butyl)-4-dimethylamino-benzamide] as the compound, how does the Ki read?
Answer: < 5 µM

Question: `CC(C)C[C@H](NC(=O)c1ccc(N(C)C)cc1)C(=O)N1CC[C@@H]2[C@H]1C(=O)CN2C(=O)C1(N)CCC1` [Example 223, (3aR,6aS)-N-{(1S)-1-[4-(1-Amino-cyclobutanecarbonyl)-6-oxo-hexahydro-pyrrolo[3,2-b]pyrrole-1-carbonyl]-3-methyl-butyl}-4-dimethylamino-benzamide] was tested. Which Ki did it give?
Answer: < 5 µM

Question: For `CC(C)C[C@H](NC(=O)c1ccc(N(C)C)cc1)C(=O)N1CC[C@@H]2[C@H]1C(=O)CN2C(=O)C1(N)CCCC1` [Example 224], which Ki is on record?
Answer: < 5 µM

Question: `CC(C)C[C@H](NC(=O)c1ccc(N(C)C)cc1)C(=O)N1CC[C@@H]2[C@H]1C(=O)CN2C(=O)[C@@H](N)C1CCCCC1` [Example 226, (3aR,6aS)-N-{(1S)-1-[4-((2S)-2-Amino-2-cyclohexyl-acetyl)-6-oxo-hexahydro-pyrrolo[3,2-b]pyrrole-1-carbonyl]-3-methyl-butyl}-4-dimethylamino-benzamide] was tested. Which Ki did it give?
Answer: < 5 µM

Question: For `CC(C)C[C@H](NC(=O)c1ccc(N(C)C)cc1)C(=O)N1CC[C@@H]2[C@H]1C(=O)CN2C(=O)CN(C)C` [Example 227, (3aR,6aS)-4-Dimethylamino-N-{(1S)-1-[4-(2-dimethylamino-acetyl)-6-oxo-hexahydro-pyrrolo[3,2-b]pyrrole-1-carbonyl]-3-methyl-butyl}-benzamide], which Ki is on record?
Answer: < 5 µM

Question: For `CC(C)C[C@H](NC(=O)c1ccc(N(C)C)cc1)C(=O)N1CC[C@@H]2[C@H]1C(=O)CN2C(=O)C1CCCO1` (stereo partly drawn) [Example 238, (3aR,6aS)-4-Dimethylamino-N-{(1S)-3-methyl-1-[6-oxo-4-(tetrahydro-furan-2-carbonyl)-hexahydro-pyrrolo[3,2-b]pyrrole-1-carbonyl]-butyl}-benzamide], which Ki is on record?
Answer: < 5 µM

Question: With `CC(C)C[C@H](NC(=O)c1ccc(N(C)C)cc1)C(=O)N1CC[C@@H]2[C@H]1C(=O)CN2C(=O)CC1CCNCC1` [Example 240] as the compound, how does the Ki read?
Answer: < 5 µM

Question: `CC(C)C[C@H](NC(=O)c1ccc(N(C)C)cc1)C(=O)N1CC[C@@H]2[C@H]1C(=O)CN2C(=O)CN1CCNCC1` [Example 241, (3aR,6aS)-4-Dimethylamino-N-{(1S)-3-methyl-1-[6-oxo-4-(2-piperazin-1-yl-acetyl)-hexahydro-pyrrolo[3,2-b]pyrrole-1-carbonyl]-butyl}-benzamide] was tested. Which Ki did it give?
Answer: < 5 µM

Question: How did the Ki turn out when `CC(C)C[C@H](NC(=O)c1ccc(N(C)C)cc1)C(=O)N1CC[C@@H]2[C@H]1C(=O)CN2C(=O)C1CCNCC1` [Example 242, (3aR,6aS)-4-Dimethylamino-N-{(1S)-3-methyl-1-[6-oxo-4-(piperidine-4-carbonyl)-hexahydro-pyrrolo[3,2-b]pyrrole-1-carbonyl]-butyl}-benzamide] was run?
Answer: < 5 µM

Question: With `O=C(N[C@@H](CSCc1ccccc1)C(=O)N1CC[C@@H]2[C@H]1C(=O)CN2C(=O)c1ccccc1)c1cccc(Oc2ccccc2)c1` [Example 260, (3aR,6aS)-N-[(1R)-2-(4-Benzoyl-6-oxo-hexahydro-pyrrolo[3,2-b]pyrrol-1-yl)-1-benzylsulfanylmethyl-2-oxo-ethyl]-3-phenoxy-benzamide] as the compound, how does the Ki read?
Answer: < 5 µM
